The record followed here is ChEMBL document CHEMBL1150894, “Three new manzamine congeners from amphimedon sponge” (J Nat Prod, 1998).

Converted amounts (≈) assume the structure as drawn.

For one assay, the system named is Corynebacterium xerosis. Put plainly: Antibacterial activity against Corynebacterium xerosis. It counts as functional.
For a further assay, the system named is Micrococcus luteus. The experiment in a line: Antibacterial activity against Sarcina lutea. The assay is classed as functional.
For the next assay, the system named is L1210. Put plainly: Cytotoxicity against mouse L1210 cells. The assay is classed as functional, cell-based.

The MIC is the lowest concentration that inhibits growth of the organism. High values mean weaker potency, low ones greater potency. Usually IC50 stands for the concentration that gives 50% inhibition. Low values mean greater potency in that assay, high ones weaker potency in that assay. Take `O[C@]12C=C(c3nccc4c3[nH]c3ccccc34)[C@@H]3CCN(CCCC/C=C\CC1)C[C@@]31C[C@@H]3/C=C\CCCCN3[C@H]12` [MANZAMINE A]: the MIC with Corynebacterium xerosis amounted to 5.7 µg/mL (≈ 10.4 µM); against Micrococcus luteus, 2.3 µg/mL (≈ 4.19 µM). The compound also had an IC50 in the assay on L1210 of 1.4 µg/mL (≈ 2.55 µM).

For `O[C@]12C=C(C3=NCCc4c3[nH]c3ccccc43)[C@@H]3CCN(CC/C=C\CCCC1)C[C@@]31CC/C=C\CCCCN[C@H]12`, the MIC in the assay with Corynebacterium xerosis and in the assay with Micrococcus luteus was 12.5 µg/mL (≈ 22.6 µM) in each case. The same compound registered an IC50 with L1210 of 0.5 µg/mL (≈ 0.904 µM).
